PubChem BioAssay AID330 (DTP/NCI, 2004)
Several values for one entry are separate records, joined by “and”; a condition that tells them apart may be missing. Equal values may be shown once. Toxic doses and inconclusive results are not listed. Rule for the calls: active = survival T/C of 150% or more; inactive = T/C below 125% in these data. Square brackets hold non-standard residues; d marks the D form. Peptide text beside a SMILES is read from it. * marks the point of attachment. ξ: configuration not given here. Cbz = O=C(OCc1ccccc1)*; ξI = CCC(C)C(N)C(=O)O

System: P388 leukemia ip, CD2F1 mice, survival T/C
Assay: NCI In Vivo Anticancer Drug Screen. Data for tumor model P388 Leukemia (intraperitoneal) in CD2F1 (CDF1) mice
Settings: endpoint: median survival time, higher = longer survival
Summary of the method: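 Mice carrying the transplanted tumor received test compound or vehicle. Survival was recorded in each group, and the value is the treated-group measurement divided by that of the vehicle-treated control group.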

[1] = dose: 12.5 mg/kg/injection, schedule: Q01DX009 (ip), vehicle: saline with Tween-80
[2] = dose: 25.0 mg/kg/injection, schedule: Q01DX009 (ip), vehicle: saline with Tween-80
[3] = dose: 50.0 mg/kg/injection, schedule: Q01DX009 (ip), vehicle: saline
[4] = dose: 100.0 mg/kg/injection, schedule: Q01DX009 (ip), vehicle: saline with Tween-80
[5] = dose: 50.0 mg/kg/injection, schedule: Q01DX005 (ip), vehicle: saline with Tween-80
[6] = dose: 100.0 mg/kg/injection, schedule: Q01DX005 (ip), vehicle: saline with Tween-80
[7] = dose: 200.0 mg/kg/injection, schedule: Q01DX005 (ip), vehicle: saline with Tween-80
[8] = dose: 12.5 mg/kg/injection, schedule: Q01DX009 (ip), vehicle: distilled water + Tween-80
[9] = dose: 25.0 mg/kg/injection, schedule: Q01DX009 (ip), vehicle: distilled water + Tween-80
[10] = dose: 50.0 mg/kg/injection, schedule: Q01DX009 (ip), vehicle: distilled water + Tween-80
[11] = dose: 100.0 mg/kg/injection, schedule: Q01DX009 (ip), vehicle: distilled water + Tween-80
[12] = dose: 200.0 mg/kg/injection, schedule: Q01DX009 (ip), vehicle: distilled water + Tween-80
[13] = dose: 50.0 mg/kg/injection, schedule: Q01DX009 (ip), vehicle: saline with Tween-80
[14] = dose: 50.0 mg/kg/injection, schedule: Q01DX005 (ip), vehicle: Klucel (hydroxypropylcellulose) (HPC)
[15] = dose: 100.0 mg/kg/injection, schedule: Q01DX005 (ip), vehicle: Klucel (hydroxypropylcellulose) (HPC)
[16] = dose: 200.0 mg/kg/injection, schedule: Q01DX005 (ip), vehicle: Klucel (hydroxypropylcellulose) (HPC)

Measured: T/C

CC1CCC23COC(=O)C2=CCCC3C12CC(c1ccoc1)OC2=O (stereo not given)
inactive: dose: 0.03 mg/kg/injection, schedule: Q01DX009 (ip), vehicle: saline 107 % of control | dose: 0.06 mg/kg/injection, schedule: Q01DX009 (ip), vehicle: saline 104 % of control | dose: 0.12 mg/kg/injection, schedule: Q01DX009 (ip), vehicle: saline 107 % of control | dose: 0.24 mg/kg/injection, schedule: Q01DX009 (ip), vehicle: saline 103 % of control | dose: 0.5 mg/kg/injection, schedule: Q01DX009 (ip), vehicle: Klucel (hydroxypropylcellulose) (HPC) 96 % of control | dose: 1.0 mg/kg/injection, schedule: Q01DX009 (ip), vehicle: Klucel (hydroxypropylcellulose) (HPC) 96 % of control | dose: 2.0 mg/kg/injection, schedule: Q01DX009 (ip), vehicle: Klucel (hydroxypropylcellulose) (HPC) 98 % of control

CCCCCCC(/C=C/c1ccc(Cl)c(Cl)c1)=N\NC(=O)C[N+](C)(C)C
inactive: [1] 100 % of control | [2] 103 % of control | [3] 98 % of control

O=C(Nc1ccccc1)OCC(Cl)(Cl)Cl
inactive: [4] 100 % of control | dose: 200.0 mg/kg/injection, schedule: Q01DX009 (ip), vehicle: saline with Tween-80 100 % of control | dose: 400.0 mg/kg/injection, schedule: Q01DX009 (ip), vehicle: saline with Tween-80 119 % of control

COCCc1nnnn1C
inactive: [5] 102 % of control | [6] 98 % of control | [7] 114 % of control

[NH-]CC(=O)O.[NH-]CC(=O)O.[NH-]CC(=O)O.[NH-]CC(=O)O.[Pt+4]
inactive: [8] 93 % of control | [9] 94 % of control | [10] 101 % of control | [11] 104 % of control | [12] 104 % of control

CCN(CC)C(=O)C1CCCCN1Cc1c[nH]c2ccccc12 (stereo not given)
inactive: [1] 104 % of control | [2] 109 % of control | [13] 101 % of control | [4] 99 % of control

CN(CCN1C(=O)c2cccc3cc([N+](=O)[O-])cc(c23)C1=O)CCN1C(=O)c2cccc3cc([N+](=O)[O-])cc(c23)C1=O
inactive: [5] 98 % of control | [6] 97 % of control | [7] 114 % of control

c1c[nH]c2c3ccncc3c3ncnc3c2c1
inactive: [14] 97 % of control | [15] 88 % of control

CCCCN=C(N=C(N)N)NCC
inactive: dose: 50.0 mg/kg/injection, schedule: Q01DX005 (ip), vehicle: saline 102 % of control | dose: 100.0 mg/kg/injection, schedule: Q01DX005 (ip), vehicle: saline 102 % of control

Cc1cc(C)nc(NS(=O)(=O)c2ccc(Nc3c4ccc(Cl)cc4nc4ncccc34)cc2)n1
inactive: [5] 110 % of control | [6] 106 % of control | [7] 116 % of control

COC(=O)Nc1cn2ccsc2n1
inactive: [5] 105 % of control | [6] 102 % of control | [7] 105 % of control

CC(=O)O[C@@H]1C[C@@]2(C)C(C)(C)C(=O)C=C[C@]2(C)[C@H]2CC[C@]3(C)C(=CC(=O)C3c3ccoc3)[C@]12C (stereo not given in full)
inactive: dose: 8.5 mg/kg/injection, schedule: Q01DX005 (ip), vehicle: Klucel (hydroxypropylcellulose) (HPC) 104 % of control | dose: 17.0 mg/kg/injection, schedule: Q01DX005 (ip), vehicle: Klucel (hydroxypropylcellulose) (HPC) 96 % of control | dose: 34.0 mg/kg/injection, schedule: Q01DX005 (ip), vehicle: Klucel (hydroxypropylcellulose) (HPC) 98 % of control | dose: 68.0 mg/kg/injection, schedule: Q01DX005 (ip), vehicle: Klucel (hydroxypropylcellulose) (HPC) 92 % of control | dose: 136.0 mg/kg/injection, schedule: Q01DX005 (ip), vehicle: Klucel (hydroxypropylcellulose) (HPC) 92 % of control

Cc1ccc2cccc(OC(=O)Nc3ccc(Cl)c(Cl)c3)c2n1
inactive: dose: 12.5 mg/kg/injection, schedule: Q01DX009 (ip), vehicle: saline 98 % of control | dose: 25.0 mg/kg/injection, schedule: Q01DX009 (ip), vehicle: saline 103 % of control | [13] 91 % of control | [3] 103 % of control | [4] 105 % of control

COC(=O)C1(C(=O)OC)OC(c2ccc(OC)cc2)[C@H]2C(=O)N(C)C(=O)[C@H]21 (stereo not given in full)
inactive: dose: 60.0 mg/kg/injection, schedule: Q01DX005 (ip), vehicle: Klucel (hydroxypropylcellulose) (HPC) 92 % of control | dose: 120.0 mg/kg/injection, schedule: Q01DX005 (ip), vehicle: Klucel (hydroxypropylcellulose) (HPC) 92 % of control | dose: 240.0 mg/kg/injection, schedule: Q01DX005 (ip), vehicle: Klucel (hydroxypropylcellulose) (HPC) 89 % of control

O=C1OC2=C(CCCC2)C(N2CCCCC2)C12SCCCS2 (stereo not given)
inactive: dose: 100.0 mg/kg/injection, schedule: Q04DX003 (ip), vehicle: saline with Tween-80 109 % of control | dose: 200.0 mg/kg/injection, schedule: Q04DX003 (ip), vehicle: saline with Tween-80 103 % of control | dose: 400.0 mg/kg/injection, schedule: Q04DX003 (ip), vehicle: saline with Tween-80 101 % of control

C1CC[N-]CC1.C1CC[N-]CC1.C1CC[N-]CC1.[Cr+6].[N-]=C=S.[N-]=C=S.[N-]=C=S
inactive: dose: 100.0 mg/kg/injection, schedule: Q04DX002 (ip), vehicle: acetone 97 % of control | dose: 100.0 mg/kg/injection, schedule: Q04DX002 (ip), vehicle: distilled water + alcohol 99 % of control | dose: 200.0 mg/kg/injection, schedule: Q04DX002 (ip), vehicle: acetone 97 % of control

O/C(=C/c1ncnc2ccccc12)c1cccc(Cl)c1
inactive: dose: 60.0 mg/kg/injection, schedule: Q01DX005 (ip), vehicle: saline with Tween-80 102 % of control | dose: 120.0 mg/kg/injection, schedule: Q01DX005 (ip), vehicle: saline with Tween-80 92 % of control

CCC(C)C(NC(=O)OCc1ccccc1)C(=O)NCC(=O)O (stereo not given) (Cbz-[ξI]-Gly-OH)
inactive: [14] 97 % of control | [15] 97 % of control | [16] 90 % of control

O=C(OCC(Cl)(Cl)Cl)N1[C@@H]2C=C[C@@H](N1C(=O)OCC(Cl)(Cl)Cl)[C@@]13CCCCC21O3 (stereo not given in full)
inactive: [14] 102 % of control | [15] 108 % of control | [16] 103 % of control

CNC(=O)OCC1=CC(=O)C(OC)=C(OC)C1=O
inactive: dose: 7.5 mg/kg/injection, schedule: Q01DX005 (ip), vehicle: saline with Tween-80 104 % of control | dose: 15.0 mg/kg/injection, schedule: Q01DX005 (ip), vehicle: saline with Tween-80 100 % of control | dose: 30.0 mg/kg/injection, schedule: Q01DX005 (ip), vehicle: saline with Tween-80 100 % of control

C[Si](C)(C)ONC(=O)c1ccccc1
inactive: dose: 6.25 mg/kg/injection, schedule: Q01DX009 (ip), vehicle: distilled water + Tween-80 100 % of control | [8] 92 % of control | [9] 109 % of control | [10] 102 % of control | [11] 99 % of control | [12] 105 % of control

O=C(Oc1ccc(Cl)cc1Cl)C(Cl)=C(Cl)Cl
inactive: [3] 97 % of control | dose: 100.0 mg/kg/injection, schedule: Q01DX009 (ip), vehicle: saline 111 % of control | dose: 200.0 mg/kg/injection, schedule: Q01DX009 (ip), vehicle: saline 101 % of control

C=CC1CC[N-]CC1.C=CC1CC[N-]CC1.C=CC1CC[N-]CC1.[Cl][Cr]([Cl])[Cl]
inactive: dose: 12.5 mg/kg/injection, schedule: Q04DX003 (ip), vehicle: saline with Tween-80 100 % of control | dose: 25.0 mg/kg/injection, schedule: Q04DX003 (ip), vehicle: saline with Tween-80 100 % of control | dose: 50.0 mg/kg/injection, schedule: Q04DX003 (ip), vehicle: saline with Tween-80 100 % of control

CC(Br)(C(Br)c1ccccc1)[N+](=O)[O-] (stereo not given)
inactive: dose: 25.0 mg/kg/injection, schedule: Q01DX009 (ip), vehicle: Klucel (hydroxypropylcellulose) (HPC) 110 % of control | dose: 50.0 mg/kg/injection, schedule: Q01DX009 (ip), vehicle: Klucel (hydroxypropylcellulose) (HPC) 108 % of control

CN1CCC(O)(c2ccc(Br)cc2)C(C(=O)c2ccc(Br)cc2)C1 (stereo not given)
inactive: dose: 12.5 mg/kg/injection, schedule: Q01DX005 (ip), vehicle: Klucel (hydroxypropylcellulose) (HPC) 100 % of control | dose: 25.0 mg/kg/injection, schedule: Q01DX005 (ip), vehicle: Klucel (hydroxypropylcellulose) (HPC) 100 % of control | [14] 90 % of control and 91 % of control
